# Data reported in US20040162298A1, “Method of treating HIV infection by preventing interaction of CD4 and gp120” (priority 2002, published 2004).
# Key:
# [1] = system: gp120JRFL; experiment: Biacore biosensor binding to immobilized gp120; parameters: species or system HIV-1; details: for Biacore signal on gp120-coated surface: compound at 1.5 μM, FIG. 2
# Method: GP120JRFL was immobilized on the surface of a CM-chip to a surface density of 12000. Inhibitors prepared in the running buffer was flown over the surface at 30 μl/min. The sensorgram was recorded and normalized against the buffer alone sensorgram, using a Biacore 3000 instrument.
# Biacore biosensor evaluation of gp120-inhibitor binding. (See FIG. 2 for results). The selective binding of entry inhibitors with gp120 was evaluated on a Biacore 3000 biosensor. Purified gp120JRFL was immobilized onto the flow cell surface of a CM-5 chip via EDC/NHS activated covalent modification, according to the protocol described by Biacore Inc. (Uppsala, Swiden). The surface density of immobilized gp120 reached 12000-15000 RU. Soluble CD4 and BSA coated surfaces were also immobilized on separate flow cell surfaces as controls.
# [2] = target: gp120JRFL/CD4 (Human immunodeficiency virus 1, UniProt Q75760); experiment: gp120/CD4 binding assay (ELISA); parameters: species or system HIV-1
# Method: The effect of BMS-806 on the gp120/CD4 binding. The gp120JRFL in supernatant was captured onto anti-gp120 antibody (D7324) coated plate. The compound and soluble CD4 were added to the plate simultaneously and CD4 bound to gp120 was detected by ELISA using anti-CD4 antibody OKT4 as a primary antibody and the secondary antibody goat-anti-mouse-peroxidase conjugate. Value are the means±S.E.M which represent multiple separate experiments.
# IC50 values show concentration of compound needed to inhibit 50% of binding of gp120 and CD4.
# The gp120 capturing ELISA methods was derived from Moore et al (42). Briefly, the 96 well assay plates (Immulon 4, Dynatech Technologies Inc. Chantilly, Va.) were coated overnight at 4° C. with 100 μl per well of 10 ug/ml D7324 solution in 100 mM bicarbonate buffer (pH9.6). The antibody-coated plate was washed twice with TBS (20 mM Tris-HCl, 500 mM NaCl, pH7.5). All wells were blocked with 100 μl of 3% BSA in TBS for ½ hour at room temperature. Excess BSA was removed with three TBS washes. Gp120 (purified or in supernatant) were diluted in buffer C (50 mM Tris-HCl, pH 7.5, 100 mM NaCl, 1% BSA) and added to D7324 coated plate(s) at 100μl/well. After incubating at 37° C. for 2 hours, plate(s) was washes three times with Buffer (20 mM Tris-HCl, 500 mM NaCl, 0.05% Tween-20, pH7.5) and the bound gp120 was detected by Anti-gp120-peroxidase conjugate (Cross-reactive, ImmunoDiagnostics, Inc) at a final dilution of 1:1000 in BufferC. Bound antibody-peroxidase conjugates were detected with TMB solution (Pierce) and the optical density was measured at 450 nm. Known concentration of the purified gp120IIIB (ABI) were used to generate a standard curve for gp120 quantitation.
# The assay is similar to the gp120 capturing ELISA method described above with minor modifications.(43). After coating gp120 onto the plates, sCD4 was added to the plate at a final concentration of 200 ng/ml for one hour at room temperature. […] After washing with BufferB, 100 μl of TMB solution was added and the optical density was read at 450 nm.
# [3] = system: HIV-1 single-round infectious reporter virus; experiment: Anti-HIV single cycle infection assay (luciferase reporter virus, HeLa/CD4/CCR5 cells); type: cell-based; details: Human immunodeficiency virus 1, HeLa-CD4/CCR5, 72 h, read-out: Anti-HIV single cycle infection EC50
# Method: EC50 values show concentration of compound needed to inhibit 50% HIV viral replication.
# Single-round infectious reporter virus was produced by co-transfecting human embryonic Kidney 293 cells with an HIV-1 envelope DNA expression vector and a proviral cDNA containing an envelope deletion mutation and the luciferase reporter gene inserted in place of HIV-1 nef sequences (Chen, 1994). Transfections were performed using LipofectAMINE PLUS reagent as described by the manufacturer (Life Technologies, Gaithersburg, Md.). The resulting reporter viruses are then used to infect HeLa/CD4/CCR5 cells in the following manner. Serial diluted compound was added to HeLa/CD4/CCR5 cells plated in 96 well plates at a cell density of 5×10^4 cells per well in 100 μl Dulbecco's Modified Eagle Medium containing 10% fetal Bovine serum. One hundred microliter of single-round infectious reporter virus in Dulbecco's Modified Eagle Medium was then added to the plated cells and compound at a multiplicity of infection (MOI) of 0.01. Samples were harvested 72 hours after infection and viral infection was monitored by measuring luciferase expression from viral DNA in the infected cells using a luciferase reporter gene assay kit as described by the manufacturer.
# [4] = system: HIV; experiment: Anti-HIV activity (assay not specified); type: cell-based; details: Human immunodeficiency virus 1, quoted in text
# [5] = system: gp120JRFL; experiment: Circular dichroism analysis of gp120 conformational change; parameters: species or system HIV-1
# Method: (§1) CD spectra was collected on a Jasco J-720 spectropolarimeter at ambient temperature. Protein concentration in the sample were kept a ˜1 μM, with the exception of sCD4 (1.8 μM) in 20 mM Tris/150 mM NaCl, pH 8.0. Concentration of compound used in the experiments were as indicated.
# (§2) Circular Dichroism (CD) analysis. (Method for FIG. 3 results). The CD spectra of purified gp120JRFL (1.2 μM in 5 mM Tris, pH 8.0/150 mM NaCl) were obtained, in the presence and absence of an inhibitor, on a Jasco J-720 spectropolarimeter at ambient (21-23° C.) temperature. Samples containing varying protein-to-compound mole ratios were placed in a quartz cuvette with a 1-mm pathlength. The molar ellipticity (θ) was monitored between 200 nm and 250 nm as the average of 12-20 scans. Soluble CD4 was used as a negative protein controls. Compound, BMS-066, with no anti-HIV activity (EC50>5 μM) was included as a compound control.
# [6] = system: gp120JRFL; experiment: FlashPlate binding of [3H]BMS-853 to gp120, incl. sCD4 competition; parameters: species or system HIV-1; details: radioactive inhibitor
# Method: Interaction of gp120JRFL (wild type) with ^3H-BMS-853. FlashPlate was coated with increase amount of gp120 and constant amount of ^3H-BMS-853 (16.5 nM) in BufferC was added to each well and the binding assay was allowed to proceed as described in material and methods. Points are averages of duplicate or triplicate determinations.
# Competition binding of ^3H-BMS-853 binding to gp120 by soluble CD4.(sCD4) ^3H-BMS-853 bound to gp120 in the presence of varying amount of sCD4 was determined as described under material and methods. Points shown were obtained in a signal experiment, performed in duplicate. Data were analyzed with Prism computer program. (GraphPad Software, Inc).
# FlashPlate assay. The binding of [^3H]BMS-853 to gp120 was performed on FlashPlate (NEN,SMP200). Coating of gp120 onto FlashPlate was essentially the same as described for gp120 capturing ELISA. After brief washes of gp120 coated FlashPlate with TBS, [^3H]BMS-853 was added to a final concentration of 16.5 nM in BufferC and the plate was kept at room temperature overnight. The plate was washed once with TBS and then counted in TopCount® Microplate Scintillation counter. Varying concentrations of gp120 were used to show the gp120 dose-dependent binding of [^3H]BMS-853 (FIG. 1).
# [7] = system: V1V2V3 loop-deleted gp120JRFL; experiment: Binding of [3H]BMS-853 to V1V2V3 loop-deleted gp120; parameters: species or system HIV-1; details: radioactive inhibitor
# [8] = system: HIV-1 JRFL; experiment: Activity against laboratory adapted HIV-1 strain JRFL; type: cell-based; details: Human immunodeficiency virus 1, CCR5
# Method: (§3) Viruses and cells: (Method for Table 2 results). T-tropic (X4) strains of laboratory adapted HIV-1 were amplified in MT-2 cells and titered using a virus yield assay (17). The laboratory adapted M-tropic (R5) viruses were grown in macrophages or PM1 cells and p24 ELISA assay was used to detect the virus. The TCID50/ml (tissue culture infectious dose) was calculated by the method of Spearman-Karber. Titration of viral stocks and assaying for compound sensitivity were carried out in the cell lines the viruses were originally amplified in. The 50% inhibitory concentration (EC50) was calculated by using the exponential form of the median effect equation where (Fa)=1/[1+(ED50/drug conc.)^m] (17).
# [9] = system: HIV-1 LAV; experiment: Activity against laboratory adapted HIV-1 strain LAV; type: cell-based; details: Human immunodeficiency virus 1
# Method: as §3
# [10] = system: HIV-1 NL4-3; experiment: Activity against laboratory adapted HIV-1 strain NL4-3; type: cell-based; details: Human immunodeficiency virus 1, NL43
# Method: as §3
# [11] = system: HIV-1 Bru; experiment: Activity against laboratory adapted HIV-1 strain Bru; type: cell-based; details: Human immunodeficiency virus 1
# Method: as §3
# [12] = system: HIV-1 SF-162; experiment: Activity against laboratory adapted HIV-1 strain SF-162; type: cell-based; details: Human immunodeficiency virus 1, CCR5
# Method: as §3
# [13] = system: HIV-1 Bal; experiment: Activity against laboratory adapted HIV-1 strain Bal; type: cell-based; details: Human immunodeficiency virus 1, BAL, CCR5, Virus Bal
# Method: as §3
# [14] = system: HIV-1 A0-18; experiment: Activity against laboratory adapted HIV-1 strain A0-18; type: cell-based; details: Human immunodeficiency virus 1
# Method: as §3
# [15] = system: HIV-1 SF-2; experiment: Activity against laboratory adapted HIV-1 strain SF-2; type: cell-based; details: Human immunodeficiency virus 1
# Method: as §3
# [16] = system: HIV-1 IIIB; experiment: Activity against laboratory adapted HIV-1 strain IIIB; type: cell-based; details: Human immunodeficiency virus 1, IIIB
# Method: as §3
# [17] = system: HIV-1 MN; experiment: Activity against laboratory adapted HIV-1 strain MN; type: cell-based
# Method: as §3
# [18] = system: HIV-1 RF; experiment: Activity against laboratory adapted HIV-1 strain RF; type: cell-based
# Method: as §3
# [19] = system: laboratory strains of B subtype HIV-1; experiment: Activity against panel of laboratory strains of B subtype HIV-1; type: cell-based; details: Human immunodeficiency virus 1, read-out: EC50 values against 11 of the 13 laboratory strains
# Method: as §3
# [20] = target: T1, sCD4 (Homo sapiens, UniProt P01730); experiment: Circular dichroism analysis, sCD4 negative protein control; details: sCD4 1.8 μM, compound 3.5 μM, FIG. 3B
# T1 construct: purchased ImmunoDiagnostics, Inc. (Woburn, Mass.)
# Method: as §1, §2
compound,measurement,setting,value
COc1cnc(-c2cnc(N(C)C)cn2)c2[nH]cc(C(=O)C(=O)N3CCN(C(=O)c4ccccc4)CC3)c12 [BMS-038],Biacore response at various concentrations on gp120-coated surface,[1]; various concentrations,dose-dependent increase of reflective index
O=C(C(=O)N1CCN(C(=O)c2ccccc2)CC1)c1c[nH]c2ccccc12 [BMS-216],IC50,[2],1800 ± 300 nM
same,EC50,[3],200 nM
COc1ccc(OC)c2c(C(=O)C(=O)N3CCN(C(=O)c4ccccc4)CC3)c[nH]c12 [BMS-853],IC50,[2],24 ± 9 nM
same,EC50,[3],0.1 nM
Cc1ccc(C)c2c(C(=O)C(=O)N3CCN(C(=O)c4ccccc4)CC3)c[nH]c12 [BMS-033],EC50,[4],> 5000 nM
same,attenuation of the gp120JRFL CD signal,"[5]; compound at 2 μM, FIG. 3C",did not cause any attenuation
COc1ccc(OC)c2c(C(=O)C(=O)N3CCN(C(=O)c4ccccc4)CC3)c[nH]c12 [[^3H]BMS-853],binding to full-length recombinant gp120JRFL,[6],bind effectively
same,binding to V1V2V3 loop-deleted gp120JRFL,[7],bound significantly less effective
"COc1ccnc2[nH]cc(C(=O)C(=O)N3CCN(C(=O)c4ccccc4)C[C@H]3C)c12 [BMS-806, (R)—N-(benzoyl)-3-methyl-N′-[(4-methoxy-7-azaindol-3-yl)-oxoacetyl]-piperazine]",IC50,[2],280 nM
same,EC50,[3],0.6 nM
same,EC50,[8],1.47 nM
same,EC50,[9],1.98 nM
same,EC50,[10],2.94 nM
same,EC50,[11],3.26 nM
same,EC50,[12],3.46 nM
same,EC50,"[13]; coreceptor CCR5, host Macrophage",8.4 nM
same,EC50,"[13]; coreceptor CCR5, host PM1",15.5 nM
same,EC50,[14],23.6 nM
same,EC50,[15],26.5 nM
same,EC50,[16],39.4 nM
same,EC50,"[17]; Human immunodeficiency virus 1, Virus MN, coreceptor CXCR4, host MT-2",844 nM
same,blocking of infection,[17]; virus MN,not efficiently blocked
same,EC50,[18]; Human immunodeficiency virus 1,6030 nM
same,blocking of infection,[18]; virus RF,not efficiently blocked
same,EC50,[4],1 nM
same,Biacore signal on gp120-coated surface,[1],intermediate signals
same,EC50,[19],0.85 to 75.8 nM
COc1ncc(OC)c2c(C(=O)C(=O)N3CCN(C(=O)c4ccccc4)CC3)c[nH]c12 [BMS-043],EC50,[4],0.8 nM
same,Biacore signal on gp120-coated surface,[1],intermediate signals
same,attenuation of the protein CD signal,"[5]; gp120JRFL 1.2 μM, inhibitor 2.1 μM",40%
same,attenuation of the sCD4 CD signal,[20],no attenuation
